# From US12103936B2, “Crystal form of hepatitis B surface antigen inhibitor” (FUJIAN AKEYLINK BIOTECHNOLOGY CO., LTD., priority 2018, dated 2024)
# Columns and labels:
# HBsAg [1] = assay: In vivo efficacy study in AAV/HBV mice model, HBsAg content in serum; set-up: species or system C57BL/6 mice; details: PO
# Text: C57BL/6 mice, 10% HP-β-CD as vehicle, TDF ([…]) as refer compound, the compound of formula (I), and recombinant virus rAAV8-1.3HBV.
# The reagents of the present project mainly included QIAamp96 DNA kit and TaqMan® Universal PCR Master Mix, hepatitis B surface antigen test kit.
# The instrument included centrifuge (Beckman Allegra X-15R), tissue grinder (QIAGEN-Tissue lyser II) and spectrophotometer (Thermo-NANODROP 1000).
# • a) All mice were administrated orally on the day 28 after being injected with virus, the day of administration was designated as day 0. Before administration, serum was collected by submandibular blood sampling for all mice. The mice were administration once a day for four weeks. The detailed dosage regimen was shown in Table 3. • b) Serum was collected by submandibular blood sampling for all mice twice a week, with each sampling volume being approximately 100 μL. The detailed blood sampling time is shown in Table 3. • c) On the day 28, all mice were euthanized and the blood was collected from the heart for serum collection. • d) All serum samples were sent for analysis.
# The anti-HBV activity of the test compound in AAV/HBV mice model was evaluated by determining the content of HBsAg in the serum of the mice.
# HBV-DNA [2] = details: woodchuck model, single drug; cited from earlier work
# surface antigens = details: woodchuck model, single drug; cited from earlier work
# HBV-DNA [3] = assay: HBV in vitro test in HepG2.2.15 cells, HBV-DNA by quantitative PCR; format: cell-based; details: Hepatitis B virus, 192 h, culture medium collected on day 8, read-out: EC50 against HBV-DNA
# Protocol: (§1) 1. Cell Line: HepG2.2.15 Cells
# (§2) • Pancreatin (Invitrogen-25300062) • DPBS (Corning-21031CVR) • DMSO (Sigma-D2650-100 mL) • High-throughput DNA purification kit (QIAamp 96 DNA Blood Kit, Qiagen-51162) • Quantitative quick start universal probe reagent (FastStart Universal Probe Master, Roche-04914058001) • Hepatitis B surface antigen quantitative test kit (Autobio, CL0310) 3. Consumables and Instruments: • 96-well cell culture plate (Cornin-3599) • CO2 incubator (HERA-CELL-240) • Optical sealing film (ABI-4311971) • Quantitative PCR 96-well plate (Applied Biosystems-4306737) • Fluorescence quantitative PCR instrument (Applied Biosystems-7500 real time PCR system) Experimental Methods: • 1. HepG2.2.15 cells (4×10^4 cells/well) were seeded to a 96-well plate and cultured overnight at 37° C., 5% CO2. • 2. On the day 2, the compound was diluted to a total of 8 concentrations, with a 3-fold gradient dilution. Different concentrations of compounds were added into the culture wells in duplicate wells. The final concentration of DMSO in the culture medium was 0.5%. 10 μM ETV (Entecavir) was used as a 100% inhibition control; 0.5% DMSO was used as a 0% inhibition control. • 3. […]
# (§3) 50 μL of sample and standard were added into a reaction plate respectively, followed by addition of 50 μL of enzyme conjugate into each well. […] Chemoluminescence intensity was determined by an ELISA finally. • 9.
# HBsAg [4] = assay: HBV in vitro test in HepG2.2.15 cells, hepatitis B surface antigen by ELISA; format: cell-based; details: Hepatitis B virus, HepG2.2.15, 192 h, read-out: EC50 against HBsAg
# Protocol: as §1, §2, §3
# [5] = 10 mg/kg, detection date day 11
# [6] = 10 mg/kg, detection date day 14
# [7] = 10 mg/kg, detection date day 18
# [8] = 10 mg/kg, detection date day 21
# [9] = 10 mg/kg, detection date day 25
# [10] = 10 mg/kg, detection date day 28
# [11] = 10 mg/kg, detection date day -1
compound,measurement,setting,value
"COCCCOc1cc2c(cc1OC)-c1cc(=O)c(C(=O)O)cn1[C@H](C(C)C)C2 [RG7834, reference compound]",HBsAg content in mice,"HBsAg [1]; 10 mg/kg, detection date day 4",3.54 IU/mL
same,HBsAg content in mice,"HBsAg [1]; 10 mg/kg, detection date day 7",3.58 IU/mL
same,HBsAg content in mice,HBsAg [1]; [5],3.70 IU/mL
same,HBsAg content in mice,HBsAg [1]; [6],3.49 IU/mL
same,HBsAg content in mice,HBsAg [1]; [7],3.70 IU/mL
same,HBsAg content in mice,HBsAg [1]; [8],3.52 IU/mL
same,HBsAg content in mice,HBsAg [1]; [9],3.50 IU/mL
same,HBsAg content in mice,HBsAg [1]; [10],3.66 IU/mL
same,HBsAg content in mice,HBsAg [1]; [11],4.56 IU/mL
same,reduction of HBV-DNA,HBV-DNA [2],1.7 Log
same,reduction of surface antigens,surface antigens,2.57 Log
COCCCOc1cc2c(cc1OC)-c1cc(=O)c(C(=O)O)cn1[C@H](C(C)(C)C)CO2 [the compound of formula (I)],EC50,HBV-DNA [3],2.55 nM
same,EC50,HBsAg [4],3.88 nM
same,HBsAg content in mice,"HBsAg [1]; 3 mg/kg, detection date day 4",3.68 IU/mL
same,HBsAg content in mice,"HBsAg [1]; 3 mg/kg, detection date day 7",3.70 IU/mL
same,HBsAg content in mice,"HBsAg [1]; 3 mg/kg, detection date day 11",3.76 IU/mL
same,HBsAg content in mice,"HBsAg [1]; 3 mg/kg, detection date day 14",3.70 IU/mL
same,HBsAg content in mice,"HBsAg [1]; 3 mg/kg, detection date day 18",3.85 IU/mL
same,HBsAg content in mice,"HBsAg [1]; 3 mg/kg, detection date day 21",3.78 IU/mL
same,HBsAg content in mice,"HBsAg [1]; 3 mg/kg, detection date day 25",3.76 IU/mL
same,HBsAg content in mice,"HBsAg [1]; 3 mg/kg, detection date day 28",3.96 IU/mL
same,HBsAg content in mice,"HBsAg [1]; 3 mg/kg, detection date day -1",4.54 IU/mL
same,HBsAg content in mice,"HBsAg [1]; 10 mg/kg, detection date day 4",3.56 IU/mL
same,HBsAg content in mice,"HBsAg [1]; 10 mg/kg, detection date day 7",3.69 IU/mL
same,HBsAg content in mice,HBsAg [1]; [5],3.92 IU/mL
same,HBsAg content in mice,HBsAg [1]; [6],3.61 IU/mL
same,HBsAg content in mice,HBsAg [1]; [7],3.90 IU/mL
same,HBsAg content in mice,HBsAg [1]; [8],3.75 IU/mL
same,HBsAg content in mice,HBsAg [1]; [9],3.83 IU/mL
same,HBsAg content in mice,HBsAg [1]; [10],3.87 IU/mL
same,HBsAg content in mice,HBsAg [1]; [11],4.51 IU/mL
same,HBsAg content in mice,"HBsAg [1]; 30 mg/kg, detection date day 4",3.38 IU/mL
same,HBsAg content in mice,"HBsAg [1]; 30 mg/kg, detection date day 7",3.44 IU/mL
same,HBsAg content in mice,"HBsAg [1]; 30 mg/kg, detection date day 11",3.64 IU/mL
same,HBsAg content in mice,"HBsAg [1]; 30 mg/kg, detection date day 14",3.40 IU/mL
same,HBsAg content in mice,"HBsAg [1]; 30 mg/kg, detection date day 18",3.55 IU/mL
same,HBsAg content in mice,"HBsAg [1]; 30 mg/kg, detection date day 21",3.46 IU/mL
same,HBsAg content in mice,"HBsAg [1]; 30 mg/kg, detection date day 25",3.37 IU/mL
same,HBsAg content in mice,"HBsAg [1]; 30 mg/kg, detection date day 28",3.53 IU/mL
same,HBsAg content in mice,"HBsAg [1]; 30 mg/kg, detection date day -1",4.48 IU/mL
